Measurements taken from patent publication US11046691B1 (IDEAYA BIOSCIENCES, INC., priority 2018, dated 2021).

biological target: hMAT2A (Homo sapiens (Human), UniProt P31153); experiment: Phosphate Sensor Fluorescence Assay (MAT2A enzyme inhibition); format: biochemical; conditions: L-methionine 500 uM, ATP 500 uM, class symbols
Description: The ability of the compound of present disclosure to inhibit MAT2A enzyme was determined using the Malachite Green or Phosphate Sensor Fluorescence Assay described below.
B. Phosphate Sensor Fluorescence Assay
MAT2A enzyme is incubated with a test compound in DMSO or DMSO and its substrates (L-methionine and ATP) in a microtiter plate. The enzymatic reaction is stopped by the addition of Working Phosphate Sensor Mixture. The plate is analyzed for fluorescence at 450 nm.
Assay Buffer: 50 mM Tris, pH 7.5/50 mM KCl/10 mM MgCl2/0.01% Brij-35/1 mM DTT/0.1% BGG/40 nM PNP/6 uM 7-MEG
L-methionine: 500 uM before the addition of Working Phosphate Sensor Mixture
ATP: 500 uM before the addition of Working Phosphate Sensor Mixture
Test compounds or DMSO were added to the appropriate well suing D300e digital dispenser. 5 μl/well of Assay Buffer was added to the wells corresponding to the negative control and 5 μl/well of MAT2A was added to all the wells except for those corresponding to the negative control. After incubating the plate at room temperature for 15 minutes, 5 μl/well of the 1 mM L-methionine/1 mM ATP mixture was added to all wells. The plate was centrifuged at 1000 rpm for 1 minute and then incubated at room temperature for 1 hour. 5 μl of the Working Phosphate Sensor Mixture was added to all wells and the plate was centrifuged at 1000 rpm for 1 minute. The plate was read for fluorescence at 450 nm after exciting at 430 nm.
Percent inhibition was calculated in Chemical and Biological Information System (CBIS), (ChemInnovation Software Inc.). Curves were fitted by CBIS as % inhibition vs. log [compound concentration] using a 4-parameter inhibition model. Fit=(A+((B−A)/(1+((C/x)^D)))) Res=(y−fit)

Sequence of hMAT2A (P31153 whole entry): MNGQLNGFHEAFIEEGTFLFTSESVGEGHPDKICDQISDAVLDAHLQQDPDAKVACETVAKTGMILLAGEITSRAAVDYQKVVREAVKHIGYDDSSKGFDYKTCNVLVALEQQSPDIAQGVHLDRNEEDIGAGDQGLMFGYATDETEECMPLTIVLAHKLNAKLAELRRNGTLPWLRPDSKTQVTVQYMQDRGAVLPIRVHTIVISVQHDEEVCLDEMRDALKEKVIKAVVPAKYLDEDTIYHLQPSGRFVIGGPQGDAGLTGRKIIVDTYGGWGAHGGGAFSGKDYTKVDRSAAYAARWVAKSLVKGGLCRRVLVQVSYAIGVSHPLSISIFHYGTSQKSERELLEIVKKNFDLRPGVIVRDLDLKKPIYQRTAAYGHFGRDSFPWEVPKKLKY

| IC50 | Compound |
| --- | --- |
| 200 to 500 nM | CNc1nc(=O)n(-c2cnccc2OC)c2nc(C(F)(F)F)ccc12 [Example 92, 1-(4-methoxypyridin-3-yl)-4-(methyl-amino)-7-(trifluoromethyl)pyrido[2,3-d]pyrimidin-2(1H)-one] |
| 500 to 1000 nM | O=c1nc(N2CCC2)c2ccc(N3CCC3)cc2n1-c1ccccc1 [Example 94, 4,7-di(azetidin-1-yl)-1-phenylhydro-quinazolin-2-one] |
| < 200 nM | C=Cc1ccc2c(NC)nc(=O)n(-c3ccccc3)c2c1 [Example 96, 4-(methylamino)-1-phenyl-7-vinylhydro-quinazolin-2-one] |
| < 200 nM | CCCc1ccc2c(NC)nc(=O)n(-c3ccccc3)c2c1 [Example 97, 4-(methylamino)-1-phenyl-7-propylhydroquinazolin-2-one] |
| < 200 nM | Nc1nc(=O)n(-c2ccccc2Cl)c2cc(C(F)(F)F)ccc12 [Example 99, 4-amino-1-(2-chlorophenyl)-7-(trifluoromethyl)hydroquinazolin-2-one] |
| < 200 nM | O=c1nc(NCC(F)F)c2ccc(C(F)(F)F)cc2n1-c1ccccc1Cl [Example 100, 1-(2-chlorophenyl)-4-[(2,2-difluoro-ethyl)amino]-7-(trifluoromethyl)hy-droquinazolin-2-one] |
| < 200 nM | O=c1nc(NCC(F)(F)F)c2ccc(C(F)(F)F)cc2n1-c1ccccc1Cl [Example 101, 1-(2-chlorophenyl)-4-[(2,2,2-trifluoro-ethyl)amino]-7-(trifluoromethyl)hydro-quinazolin-2-one] |
| < 200 nM | CNc1nc(=O)n(-c2ccccc2Cl)c2cc(C(F)(F)F)ccc12 [Example 102, 1-(2-chlorophenyl)-4-(methylamino)-7-(trifluoromethyl)hydroquinazolin-2-one] |
| < 200 nM | O=c1[nH]c(=O)n(-c2ccccc2Cl)c2cc(C(F)(F)F)ccc12 [Example 103, 1-(2-chlorophenyl)-7-(trifluoromethyl)-1,3-dihydroquinazoline-2,4-dione] |
| 200 to 500 nM | CCc1nc(=O)n(-c2ccccc2)c2cc(Cl)ccc12 [Example 105, 7-chloro-4-ethyl-1-phenylhydro-quinazolin-2-one] |
| 1000 to 10000 nM | CNc1nc(=O)n(-c2nccc(OC)n2)c2cc(Cl)ccc12 [Example 106, 7-chloro-1-(4-methoxypyrimidin-2-yl)-4-(methylamino)hydroquinazolin-2-one] |
| < 200 nM | CNc1nc(=O)n(-c2cc(O)ccc2C)c2cc(Cl)ccc12 [Example 109, 7-chloro-1-(3-hydroxy-6-methylphenyl)-4-(methylamino)hydroquinazolin-2-one] |
| < 200 nM | Cc1c(O)cccc1-n1c(=O)[nH]c(=O)c2ccc(Cl)cc21 [Example 110, 7-chloro-1-(3-hydroxy-2-methylphenyl)-1,3-dihydroquinazoline-2,4-dione] |
| < 200 nM | CNc1nc(=O)n(-c2cccnc2)c2cc(Cl)ccc12 [Example 114, 7-chloro-4-(methylamino)-1-(3-pyridyl)-hydroquinazolin-2-one] |
| < 200 nM | CCc1ccc2c(NC)nc(=O)n(-c3ccccc3)c2c1 [Example 115, 7-ethyl-4-(methylamino)-1-phenylhydro-quinazolin-2-one] |
| 1000 to 10000 nM | CNc1nc(=O)n(-c2nc(C)cs2)c2cc(Cl)ccc12 [Example 117, 7-chloro-1-(4-methyl(1,3-thiazol-2-yl))-4-(methylamino)hydroquinazolin-2-one] |
| < 200 nM | O=c1nc(NCC(F)(F)F)c2ccc(C(F)(F)F)cc2n1-c1ccccc1 [Example 118] |
| < 200 nM | O=c1nc(NCC(F)F)c2ccc(C(F)(F)F)cc2n1-c1ccccc1 [Example 119, 4-[(2,2-difluoroethyl)amino]-1-phenyl-7-(trifluoromethyl)hydroquinazolin-2-one] |
| 1000 to 10000 nM | COc1nc(=O)n(-c2ncccn2)c2cc(C(F)(F)F)ccc12 [Example 120] |
| 200 to 500 nM | O=c1nc(NCC(F)(F)F)c2ccc(C(F)(F)F)cc2n1-c1ncccn1 [Example 121] |
| < 200 nM | O=c1nc(NCC(F)F)c2ccc(C(F)(F)F)cc2n1-c1ncccn1 [Example 122, 4-[(2,2-difluoroethyl)amino]-1-pyrimidin-2-yl-7-(trifluoromethyl)hydro-quinazolin-2-one] |
| 200 to 500 nM | CNc1nc(=O)n(-c2ncccn2)c2cc(C(F)(F)F)ccc12 [Example 123, 4-(methylamino)-1-pyrimidin-2-yl-7-(trifluoromethyl)hydroquinazolin-2-one] |
| 500 to 1000 nM | Nc1nc(=O)n(-c2ncccn2)c2cc(C(F)(F)F)ccc12 [Example 124, 4-amino-1-pyrimidin-2-yl-7-(trifluoro-methyl)hydroquinazolin-2-one] |
| < 200 nM | Cc1ccccc1-n1c(=O)nc(N)c2ccc(C(F)(F)F)cc21 [Example 125, 4-amino-1-(2-methylphenyl)-7-(trifluoromethyl)hydroquinazolin-2-one] |
| < 200 nM | Cc1ccccc1-n1c(=O)nc(NCC(F)(F)F)c2ccc(C(F)(F)F)cc21 [Example 126, 1-(2-methylphenyl)-4-[(2,2,2-trifluoro-ethyl)amino]-7-(trifluoromethyl)hydro-quinazolin-2-one] |
| < 200 nM | Cc1ccccc1-n1c(=O)nc(NCC(F)F)c2ccc(C(F)(F)F)cc21 [Example 127, 4-[(2,2-difluoroethyl)amino]-1-(2-methylphenyl)-7-(trifluoromethyl)hydro-quinazolin-2-one] |
| < 200 nM | Cc1ccccc1-n1c(=O)nc(N2CC[C@@H](O)C2)c2ccc(C(F)(F)F)cc21 [Example 128, 4-((3R)-3-hydroxypyrrolidin-1-yl)-1-(2-methylphenyl)-7-(trifluoromethyl)hydro-quinazolin-2-one] |
| < 200 nM | CNc1nc(=O)n(-c2ccccc2C)c2cc(C(F)(F)F)ccc12 [Example 129, 4-(methylamino)-1-(2-methylphenyl)-7-(trifluoromethyl)hydroquinazolin-2-one] |
| 500 to 1000 nM | O=c1[nH]c(=O)n(-c2ccccc2)c2cc(C3CC3)ccc12 [Example 130, 7-cyclopropyl-1-phenyl-1,3-dihydro-quinazoline-2,4-dione] |

same assay, conditions: L-methionine 500 uM, ATP 500 uM, numeric bound

| IC50 | Compound |
| --- | --- |
| > 10000 nM | CNc1nc(=O)n(-c2cc(OC)ccn2)c2nc(C(F)(F)F)ccc12 [Example 93, 1-(4-methoxypyridin-2-yl)-4-(methyl-amino)-7-(trifluoromethyl)pyrido[2,3-d]pyrimidin-2(1H)-one] |
| > 10000 nM | CC(C)c1nc(=O)n(-c2ccccc2)c2cc(Cl)ccc12 [Example 104, 7-chloro-4-(methylethyl)-1-phenylhydro-quinazolin-2-one] |
| > 10000 nM | Nc1nc(=O)n(-c2ccccc2)c2cc(Cl)cc(-n3nccn3)c12 [Example 112, 4-amino-7-chloro-1-phenyl-5-(1,2,3-triazol-2-yl)hydroquinazolin-2-one] |
| > 10000 nM | CNc1nc(=O)n(-c2nc(C(F)(F)F)cs2)c2cc(Cl)ccc12 [Example 113, 7-chloro-4-(methylamino)-1-[4-(trifluoromethyl)(1,3-thiazol-2-yl)]hydroquinazolin-2-one] |
| > 10000 nM | CNc1nc(=O)n(-c2ncc(C)s2)c2cc(Cl)ccc12 [Example 116, 7-chloro-1-(5-methyl(1,3-thiazol-2-yl))-4-(methylamino)hydroquinazolin-2-one] |
